Activity calls are given as the source filed them.
Assays:
[1] = target: T1, Calpain-2 catalytic subunit (Sus scrofa, UniProt P43367); experiment: m-calpain protease blockers, concentration series – biochemical, fluorogenic peptide substrate, dose response (AID 1420); type: functional
T1 sequence (P43367 whole entry): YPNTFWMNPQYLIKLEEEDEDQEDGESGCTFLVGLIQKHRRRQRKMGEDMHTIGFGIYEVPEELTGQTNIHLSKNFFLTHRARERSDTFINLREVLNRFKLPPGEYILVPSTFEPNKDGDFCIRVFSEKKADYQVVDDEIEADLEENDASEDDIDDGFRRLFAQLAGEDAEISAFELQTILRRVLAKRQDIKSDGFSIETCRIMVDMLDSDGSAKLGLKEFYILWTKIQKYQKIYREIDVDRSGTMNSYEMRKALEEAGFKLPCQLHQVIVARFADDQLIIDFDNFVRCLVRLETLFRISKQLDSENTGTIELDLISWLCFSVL

[2] = target: T2, Rac GTPase-activating protein 1 (Homo sapiens, UniProt Q9H0H5); experiment: blockers of MgcRacGAP-driven Rac1 GTP hydrolysis – biochemical, ADP Hunter fluorescence, primary and confirmatory, confirmation (AID 624330); type: functional
T2 sequence (Q9H0H5 whole entry): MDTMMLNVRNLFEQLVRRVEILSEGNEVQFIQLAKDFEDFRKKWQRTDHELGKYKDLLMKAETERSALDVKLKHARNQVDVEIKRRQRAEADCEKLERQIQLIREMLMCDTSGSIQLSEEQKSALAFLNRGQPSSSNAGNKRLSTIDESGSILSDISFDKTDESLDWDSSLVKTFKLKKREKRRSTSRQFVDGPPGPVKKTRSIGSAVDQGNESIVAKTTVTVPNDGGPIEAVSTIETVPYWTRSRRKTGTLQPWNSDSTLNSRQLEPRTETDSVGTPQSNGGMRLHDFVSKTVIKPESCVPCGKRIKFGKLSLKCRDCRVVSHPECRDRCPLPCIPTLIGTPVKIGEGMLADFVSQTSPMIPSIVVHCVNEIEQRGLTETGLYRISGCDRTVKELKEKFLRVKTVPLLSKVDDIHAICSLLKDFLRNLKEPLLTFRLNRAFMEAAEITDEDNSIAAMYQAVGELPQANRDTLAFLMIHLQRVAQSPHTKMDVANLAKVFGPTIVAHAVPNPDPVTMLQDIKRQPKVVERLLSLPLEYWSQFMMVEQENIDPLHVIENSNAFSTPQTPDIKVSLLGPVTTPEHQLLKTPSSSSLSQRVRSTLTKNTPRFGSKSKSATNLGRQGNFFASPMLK

[3] = Trypanosoma cruzi growth suppression in host cells – NIH3T3 host cells, beta-gal luminescence, confirmation (AID 2044); type: functional, cell-based;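 further: intracellular parasites grown in NIH/3T3 mouse fibroblasts as host cells; luminescent beta-galactosidase reporter signal from transgenic T. cruzi replicating inside host cells; inhibitors lower the luminescence signal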
INS1 = experiment: INS-1E survival protection against cytokine death – cell-based, luminescence, retest, dose response (AID 449756); type: functional; settings: Rattus norvegicus;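 further: cell death triggered by IL-1 beta plus TNF-alpha plus IFN-gamma mixture; protective hits raise ATP signal compared with cytokine alone wells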
[4] = NIH3T3 cell viability loss – ATP luminescence, mouse fibroblasts, counter-screen, dose response (AID 2010); type: functional, cell-based;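 further: cells exposed to compound for about 90 hours before reading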
Large T antigen = Large T antigen (Simian virus 40, UniProt P03070); type: functional, Betapolyomavirus macacae;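 further: Confirmatory-stage PubChem screen for compounds that inhibit SV40 T antigen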
Sequence of Large T antigen (P03070 whole entry): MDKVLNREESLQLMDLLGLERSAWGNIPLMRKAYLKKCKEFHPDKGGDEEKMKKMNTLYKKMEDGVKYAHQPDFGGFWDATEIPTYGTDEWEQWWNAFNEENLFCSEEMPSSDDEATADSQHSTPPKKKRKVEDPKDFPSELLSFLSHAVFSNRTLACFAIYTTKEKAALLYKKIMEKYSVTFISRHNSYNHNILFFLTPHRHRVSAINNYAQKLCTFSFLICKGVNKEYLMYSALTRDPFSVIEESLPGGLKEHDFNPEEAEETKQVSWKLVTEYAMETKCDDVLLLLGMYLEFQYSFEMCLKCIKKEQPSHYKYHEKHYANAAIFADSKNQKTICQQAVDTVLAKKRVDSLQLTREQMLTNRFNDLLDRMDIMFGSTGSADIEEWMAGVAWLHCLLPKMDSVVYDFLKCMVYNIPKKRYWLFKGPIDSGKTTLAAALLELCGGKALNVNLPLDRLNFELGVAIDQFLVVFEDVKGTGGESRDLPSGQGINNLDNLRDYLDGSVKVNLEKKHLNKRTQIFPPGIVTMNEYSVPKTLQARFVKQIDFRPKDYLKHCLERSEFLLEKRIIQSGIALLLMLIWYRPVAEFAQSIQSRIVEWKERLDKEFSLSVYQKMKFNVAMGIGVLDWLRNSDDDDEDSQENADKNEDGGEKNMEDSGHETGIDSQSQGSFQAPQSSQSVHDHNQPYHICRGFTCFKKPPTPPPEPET

[5] = target: Heat shock protein HSP 90-alpha (Homo sapiens, UniProt P07900); type: functional, organism-based
[6] = alpha-synuclein stem-loop luciferase translation blockers – H4 neuroglioma cells, luminescence, confirmation (AID 1988); type: functional, cell-based
[7] = Luminescence Cell-Based Dose Response HTS to Identify Inhibitors of 5'UTR Stem-Loop Driven Prion Protein mRNA Translation in H4 Neuroglioblastoma Cells. [Related pubchem assays: 1827 (Project Summary), 1813 (Primary HTS)]; type: functional
[8] = luciferase reporter signal suppression in cells – H4 neuroglioma cells, luminescence, dose response (AID 1990); type: functional, cell-based
Streptococcus = experiment: GAS UMAA2166 growth inhibition – luminescence, BacTiterGlo, counter-screen for streptokinase expression inhibitor project, dose response (AID 1915); type: functional, organism-based;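 further: potency for reduction of bacterial viability or growth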
[9] = tested on: Streptococcus sp. 'group A'; experiment: Streptococcus pyogenes SK(-)GAS viability under kanamycin – luminescence, BacTiterGlo, confirmation, counter-screen for streptokinase expression inhibitor project, dose response (AID 1900); type: functional, organism-based
Streptokinase A = target: T3, Streptokinase A (Streptococcus pyogenes serotype M1, UniProt P10520); experiment: viability-normalized secreted streptokinase activity reduction – plasminogen activation absorbance, OD405, dose response (AID 1914); type: functional, Streptococcus pyogenes M1 GAS;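 further: secreted streptokinase activity via plasminogen activation per viability signal from cell pellet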
T3 sequence (P10520 whole entry): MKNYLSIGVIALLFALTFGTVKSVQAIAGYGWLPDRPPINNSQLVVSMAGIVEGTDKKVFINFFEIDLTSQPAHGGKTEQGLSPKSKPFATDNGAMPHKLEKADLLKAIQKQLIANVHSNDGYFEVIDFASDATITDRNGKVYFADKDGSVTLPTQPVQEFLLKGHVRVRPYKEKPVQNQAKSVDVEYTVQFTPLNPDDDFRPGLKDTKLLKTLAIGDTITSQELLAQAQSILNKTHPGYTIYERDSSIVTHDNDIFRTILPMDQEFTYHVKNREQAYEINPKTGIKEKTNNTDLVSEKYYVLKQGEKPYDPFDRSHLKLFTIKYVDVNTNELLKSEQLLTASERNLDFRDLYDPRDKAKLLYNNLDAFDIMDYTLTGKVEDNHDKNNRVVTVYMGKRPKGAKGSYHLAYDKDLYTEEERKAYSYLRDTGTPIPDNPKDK

[10] = target: T4, Replicative DNA helicase DnaB (Mycobacterium tuberculosis, UniProt P9WMR3); experiment: DnaB intein splicing inhibitors, dose response, biochemical, cell-free fluorescence (AID 449749); type: functional
T4 sequence (P9WMR3 whole entry): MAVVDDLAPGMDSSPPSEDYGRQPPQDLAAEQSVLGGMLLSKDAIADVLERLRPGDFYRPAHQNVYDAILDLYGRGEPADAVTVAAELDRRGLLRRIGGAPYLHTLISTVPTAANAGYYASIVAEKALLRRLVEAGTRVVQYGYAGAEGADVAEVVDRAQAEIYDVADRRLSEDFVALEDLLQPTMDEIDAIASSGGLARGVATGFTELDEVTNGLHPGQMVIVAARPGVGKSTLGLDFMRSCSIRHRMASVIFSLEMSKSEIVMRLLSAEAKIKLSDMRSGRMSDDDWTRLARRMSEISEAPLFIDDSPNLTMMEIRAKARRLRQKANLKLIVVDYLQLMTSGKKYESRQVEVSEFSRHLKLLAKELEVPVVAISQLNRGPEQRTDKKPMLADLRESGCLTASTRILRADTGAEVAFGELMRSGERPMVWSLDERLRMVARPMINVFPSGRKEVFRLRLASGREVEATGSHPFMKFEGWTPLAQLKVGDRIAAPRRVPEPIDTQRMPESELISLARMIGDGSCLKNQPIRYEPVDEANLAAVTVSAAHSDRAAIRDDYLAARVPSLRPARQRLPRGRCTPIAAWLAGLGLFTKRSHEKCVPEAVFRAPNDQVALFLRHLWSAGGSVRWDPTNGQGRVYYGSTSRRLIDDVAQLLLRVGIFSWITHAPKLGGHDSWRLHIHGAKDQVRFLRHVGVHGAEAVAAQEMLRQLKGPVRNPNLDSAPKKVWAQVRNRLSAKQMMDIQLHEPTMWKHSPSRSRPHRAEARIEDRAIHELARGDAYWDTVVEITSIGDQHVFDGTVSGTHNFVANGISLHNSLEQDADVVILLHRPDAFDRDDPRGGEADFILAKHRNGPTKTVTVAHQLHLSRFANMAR

[11] = target: T5, Heat shock factor protein 1 (Mus musculus, UniProt P38532); experiment: enhancement of HSF1-driven luciferase signal – cell-based, NIH3T3, luminescence, dose retest, confirmation (AID 435004); type: functional;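 further: stress induced by proteasome inhibitor MG132 added 30 min after compound; luciferase reporter driven by HSF1 response element in NIH3T3 cells; actives raise luminescence as potentiators of the MG132 stress response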
T5 sequence (P38532 whole entry): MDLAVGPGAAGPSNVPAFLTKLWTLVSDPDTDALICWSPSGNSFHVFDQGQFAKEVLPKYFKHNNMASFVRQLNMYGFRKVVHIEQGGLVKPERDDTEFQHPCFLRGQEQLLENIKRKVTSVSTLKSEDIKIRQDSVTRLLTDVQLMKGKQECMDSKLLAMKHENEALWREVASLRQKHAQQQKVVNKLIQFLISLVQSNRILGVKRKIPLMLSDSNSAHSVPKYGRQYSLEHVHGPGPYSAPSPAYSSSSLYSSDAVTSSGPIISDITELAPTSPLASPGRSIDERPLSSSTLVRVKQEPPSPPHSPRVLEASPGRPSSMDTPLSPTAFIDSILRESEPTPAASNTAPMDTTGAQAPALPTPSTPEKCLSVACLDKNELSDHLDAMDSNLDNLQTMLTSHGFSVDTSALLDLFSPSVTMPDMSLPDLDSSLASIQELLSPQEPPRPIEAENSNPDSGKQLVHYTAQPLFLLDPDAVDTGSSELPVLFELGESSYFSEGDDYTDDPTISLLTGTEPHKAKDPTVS

BJ [12] = experiment: BJ-TERT-LT-ST fibroblast viability loss – cell-based, RAS-independent, luminescence, dose response (AID 1935); type: functional; settings: Homo sapiens;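 further: BJ fibroblasts immortalized with TERT plus LT and ST oncogenes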
Protein RecA = target: T6, Protein RecA (Mycobacterium tuberculosis, UniProt P9WHJ3); experiment: Fluorescence Cell-Free Homogeneous Dose Retest to Identify Inhibitors of RecA-Intein Splicing Activity. [Related pubchem assays (depositor defined):AID2097, AID2223, AID489010, AID492950]; type: functional
T6 sequence (P9WHJ3 whole entry): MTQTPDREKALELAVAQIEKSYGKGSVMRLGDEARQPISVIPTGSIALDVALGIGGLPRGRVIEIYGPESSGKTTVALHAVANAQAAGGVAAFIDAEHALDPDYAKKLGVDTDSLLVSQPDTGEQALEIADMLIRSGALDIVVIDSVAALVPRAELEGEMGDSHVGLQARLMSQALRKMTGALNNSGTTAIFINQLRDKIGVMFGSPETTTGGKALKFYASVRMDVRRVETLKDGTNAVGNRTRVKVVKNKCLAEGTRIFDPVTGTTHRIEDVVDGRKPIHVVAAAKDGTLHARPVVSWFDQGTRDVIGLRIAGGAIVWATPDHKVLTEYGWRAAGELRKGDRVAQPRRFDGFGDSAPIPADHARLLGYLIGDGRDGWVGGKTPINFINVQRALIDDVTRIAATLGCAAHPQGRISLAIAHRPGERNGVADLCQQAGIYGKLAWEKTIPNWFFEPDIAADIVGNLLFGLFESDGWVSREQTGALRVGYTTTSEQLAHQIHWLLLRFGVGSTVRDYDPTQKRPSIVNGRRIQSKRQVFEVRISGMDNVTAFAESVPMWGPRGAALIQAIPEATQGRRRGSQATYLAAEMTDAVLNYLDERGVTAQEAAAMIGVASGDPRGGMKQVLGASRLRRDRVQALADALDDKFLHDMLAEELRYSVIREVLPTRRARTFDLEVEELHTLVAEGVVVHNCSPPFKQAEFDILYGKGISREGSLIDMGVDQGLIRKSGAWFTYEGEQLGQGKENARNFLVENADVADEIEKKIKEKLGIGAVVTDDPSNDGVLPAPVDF

BJ [13] = experiment: cells; type: functional, cell-based; settings: Homo sapiens
BJ [14] = experiment: BJ-TERT fibroblast viability loss – cell-based, RAS-independent, luminescence, dose response (AID 1933); type: functional; settings: Homo sapiens
[15] = DRD fibroblast viability loss – cell-based, non-viral oncogenic, luminescence, dose response (AID 1934); type: functional; settings: Homo sapiens

OC(COc1ccccc1)Cn1c2ccccc2c2ccccc21 (stereo unspecified)
IC50 [1]: 7.48 µM (not active)

C=CCNc1ccc(N2C(=O)C3CCC(C)CC3C2=O)cc1[N+](=O)[O-] (stereo unspecified)
IC50 [1]: 4.48 µM (not active)

COc1cc(CN(C)CCc2ccccn2)cc(OC)c1OC
IC50 [2]: 101 µM (active)

Cc1ccnc(NC(=O)c2ccc([N+](=O)[O-])s2)c1
EC50 [3]: 0.743 µM (active) | AC50 (INS1): 6.55 µM (active) | EC50 [4]: > 60 µM (not active)

Oc1nc(SCc2ccccc2Cl)nc(-c2ccc(Cl)cc2)n1
IC50 [1]: 4.51 µM (not active)

NS(=O)(=O)c1cccc(NC(=O)CN2CCC(Cc3ccccc3)CC2)c1
IC50 [1]: 25.9 µM (not active)

O=C(CNC1CCCCCC1)Nc1ccccc1N1CCOCC1
IC50 [2]: 177 µM (active)

N#CC(c1ccncc1)(c1ncc(C(F)(F)F)cc1Cl)N1CCOCC1 (stereo unspecified)
IC50 [1]: 19.2 µM (not active)

Cc1[nH]c2ccccc2c1CCN(Cc1cccnc1)C(S)=Nc1ccc(F)cc1
IC50 [1]: > 50 µM (not active)

COC(C(=O)N/N=C(\C)CC(=O)Nc1ccc(N(C)C)cc1)c1ccccc1 (stereo unspecified)
IC50 [2]: 50.3 µM (active) | IC50 (Large T antigen): 11.1 µM (active)

Oc1ccc(-c2csc(Nc3ccccn3)n2)cc1
IC50 [2]: 65.8 µM (active)

CC1CCN([S+]([O-])C23CC4CC(CC(C4)C2)C3)CC1 (stereo unspecified)
IC50 [1]: > 50 µM (not active)

O=c1cc(-c2ccccc2)cc(-c2ccccc2)n1O
AC50 [5]: 1.13 µM (active)

COc1cc(/C=N/NC(=O)CCc2ccccc2)ccc1O
IC50 [2]: 28.7 µM (active)

O=C(N/N=C/c1cc([N+](=O)[O-])ccc1O)c1cccc(NC(=O)c2cccc(Cl)c2)c1
EC50 [6]: 10.6 µM (active) | EC50 [7]: 13.3 µM (active) | EC50 [8]: 12.7 µM (active) | AC50 (INS1): 2.18 µM (active) | EC50 (Streptococcus): 18.7 µM (active) | EC50 [9]: 5.18 µM (active) | EC50 (Streptokinase A): > 150 µM (not active)

Cc1cccc(-c2noc(CN(C(=O)/C=C/c3ccccc3Cl)C(C)C)n2)c1
IC50 [1]: 13.3 µM (not active)

ClC(Cl)(Cl)c1nc2ccccc2n2nncc12
AC50 [10]: 39.3 µM (active) | EC50 [11]: 5.46 µM (active) | EC50 (BJ [12]): 18.7 µM (active) | EC50 (Protein RecA): 6.03 µM (active) | EC50 (BJ [13]): 13.7 µM (active) | EC50 (BJ [14]): 6.96 µM (inconclusive) | EC50 [15]: 13.1 µM (active)

Cn1nnnc1SC(C(=O)Nc1cccc(C(F)(F)F)c1)c1ccccc1 (stereo unspecified)
IC50 [1]: 16.4 µM (active)

CCCCCCCCCCOC(=O)C[N+](C)(C)C/C=C(/C)Cl
AC50 (INS1): 13.3 µM (active)

COc1ccc(NC(=O)CN2CCN(c3nc(-c4ccc(F)cc4)cs3)CC2)c(OC)c1
IC50 [1]: 5.73 µM (not active)

COC(=O)c1ccc(NC2(C#N)C(=O)Nc3ccccc32)cc1 (stereo unspecified)
IC50 [1]: > 50 µM (not active)

Reference: ChEMBL document CHEMBL1201862, “PubChem BioAssay data set” (2004)
